Among the data in patent publication US9693997B2, “Antiviral compounds” (priority 2013, dated 2017) are EC50 values, retold here.

Counter-ions that a name gives are not always drawn.

The test system of assay [1] is Pseudotyped HCV GT1b particles (HCVpp), entry into Huh7-high CD81 cells. Kind of assay: microbe, parasite or virus in culture. The assay is classed as cell-based, HCV GT1b Con1 strain. Particulars: Hepatitis C virus, GT1B, 72 h, read-out: HCVpp GT-1b (EC50, μM).
The subject of assay [2] is pseudotyped VSV G particles (VSVpp) in Huh7-high CD81 cells. Nature of the assay: microbe, parasite or virus in culture. The assay is classed as cell-based, vesicular stomatitis virus. To be noted: Vesicular stomatitis virus, 72 h, read-out: VSVpp (EC50, μM).

In general, EC50 refers to the concentration at which the effect is half-maximal.

Consider `CCCCC(=O)Nc1ccc(-c2ccc(Nc3n[nH]c(N)n3)cc2)cc1` [Compound 53, Pentanoic acid [4′-(5-amino-1H-[1,2,4]triazol-3-ylamino)-biphenyl-4-yl]-amide], for which the EC50 in assay [1] came to 5.61 µM; in assay [2], 4.38 µM.
On the same counts, the results for `Nc1nc(Nc2cc(Cl)c(-c3ccc(OCCC4CCCN4)cc3)c(Cl)c2)n[nH]1` (stereo not drawn) [Compound 264, N*3*-[2,6-Dichloro-4′-(2-pyrrolidin-2-yl-ethoxy)-biphenyl-4-yl]-1H-[1,2,4]triazole-3,5-diamine] are 0.048 µM and 6.5 µM.
For `CC(C)(C)NS(=O)(=O)c1cccc(-c2c(Cl)cc(Nc3n[nH]c(N)n3)cc2C(F)(F)F)c1` [Compound 176, 4′-(5-amino-1H-1,2,4-triazol-3-ylamino)-N-tert-butyl-2′-chloro-6′-(trifluoromethyl)biphenyl-3-sulfonamide], in that order: 0.019 µM and 9.6 µM.
On the same counts, the results for `Nc1nc(Nc2cc(Cl)c(-c3ccc(S(=O)(=O)CC4CC4)cc3)c(C(F)(F)F)c2)n[nH]1` [Compound 64, N*3*-(6-Chloro-4′-cyclopropylmethanesulfonyl-2-trifluoromethyl-biphenyl-4-yl)-1H-1,2,4-triazole-3,5-diamine] are 0.023 µM and 9.54 µM.
Regarding `CC(C)(C)OC(=O)N1CCC[C@H]1COc1ccc(-c2c(Cl)cc(Nc3n[nH]c(N)n3)cc2C(F)(F)F)cc1` [Compound 277, (S)-2-[4′-(5-Amino-1H-[1,2,4]triazol-3-ylamino)-2′-chloro-6′-trifluoromethyl-biphenyl-4-yloxymethyl]-pyrrolidine-1-carboxylic acid tert-butyl ester], the figures for the EC50 in assay [1] and in assay [2] were 0.312 µM and 27.9 µM, respectively.
On the same counts, the results for `CC(C)(C)N1CC(OC(=O)Nc2ccc(-c3c(Cl)cc(Nc4n[nH]c(N)n4)cc3C(F)(F)F)cc2)C1` [Compound 236, [4′-(5-amino-1H-[1,2,4]triazol-3-ylamino)-2′-chloro-6′-trifluoromethyl-biphenyl-4-yl]-carbamic acid 1-tert-butyl-azetidin-3-yl ester] are 0.045 µM and above 10 µM.
As for `CN1CCCC(Oc2ccc(-c3c(Cl)cc(Nc4n[nH]c(N)n4)cc3C(F)(F)F)cc2)C1` (stereo not drawn) [Compound 132, N*3*-[6-Chloro-4′-(1-methyl-piperidin-3-yloxy)-2-trifluoromethyl-biphenyl-4-yl]-1H-[1,2,4]triazole-3,5-diamine hydrochloride], the half-maximal effective concentration (EC50) in assay [1] was 0.088 µM; in assay [2], 6.13 µM.
On the same counts, the results for `Nc1nc(Nc2cc(Cl)c(-c3ccc(OCc4ccccn4)cc3)c(Cl)c2)n[nH]1` [Compound 284, N*3*-[2,6-Dichloro-4′-(pyridin-2-ylmethoxy)-biphenyl-4-yl]-1H-[1,2,4]triazole-3,5-diamine] are 0.576 µM and above 10 µM.
Take `CS(=O)(=O)c1ccc(-c2ccc(Nc3n[nH]c(N)n3)cc2Cl)cc1` [Compound 154, N*3*-(2-Chloro-4′-methanesulfonyl-biphenyl-4-yl)-1H-[1,2,4]triazole-3,5-diamine]: the EC50 in assay [1] turned out to be 2.47 µM; in assay [2], 16.4 µM.
As for `CN(C)S(=O)(=O)c1ccc(-c2c(F)cc(Nc3nc(N)n[nH]3)cc2C(F)(F)F)cc1` [Compound 75, 4′-(5-Amino-2H-[1,2,4]-triazol-3-ylamino)-6′-fluoro-2′-trifluoromethyl-biphenyl-4-sulfonic acid dimethylamide], the EC50 was found to be 0.164 µM in assay [1] and 12.6 µM in assay [2].
On the same counts, the results for `Nc1nc(Nc2cc(Cl)c(-c3ccc(S(=O)(=O)N4CCCC4)cc3)c(Cl)c2)n[nH]1` [Compound 220, N*3*-[2,6-Dichloro-4′-(pyrrolidine-1-sulfonyl)-biphenyl-4-yl]-1H-[1,2,4]triazole-3,5-diamine] are 0.028 µM and 24.8 µM.
`CN(CCOc1ccc(-c2c(Cl)cc(Nc3n[nH]c(N)n3)cc2C(F)(F)F)cc1)C(=O)OC(C)(C)C` [Compound 125, {2-[4′-(5-Amino-1H-[1,2,4]triazol-3-ylamino)-6′-chloro-2′-trifluoromethyl-biphenyl-4-yloxy]-ethyl}-methyl-carbamic acid tert-butyl ester]: the half-maximal effective concentration (EC50) in assay [1] was 0.096 µM; in assay [2] it was above 10 µM.
On the same counts, the results for `CC(C)(C)OC(=O)N1CCC[C@@H]1COc1ccc(-c2c(Cl)cc(Nc3n[nH]c(N)n3)cc2Cl)cc1` [Compound 275, (R)-2-[4′-(5-Amino-1H-[1,2,4]triazol-3-ylamino)-2′,6′-dichloro-biphenyl-4-yloxymethyl]-pyrrolidine-1-carboxylic acid tert-butyl ester] are 0.285 µM and above 10 µM.
For `NCCOc1ccc(-c2c(Cl)cc(Nc3n[nH]c(N)n3)cc2C(F)(F)F)cc1` [Compound 135, N*3*-[4′-(2-Amino-ethoxy)-6-chloro-2-trifluoromethyl-biphenyl-4-yl]-1H-[1,2,4]-triazole-3,5-diamine hydrochloride], in that order: 0.077 µM and above 10 µM.
In the case of `CC(C)(C)OC(=O)c1ccc(-c2c(Cl)cc(Nc3n[nH]c(N)n3)cc2C(F)(F)F)cc1` [Compound 200, tert-butyl 4′-(5-amino-1H-1,2,4-triazol-3-ylamino)-2′-chloro-6′-(trifluoromethyl)biphenyl-4-carboxylate], the EC50 was 0.574 µM in assay [1] and above 10 µM in assay [2].
On the same counts, the results for `COc1ccc(-c2c(Cl)cc(Nc3n[nH]c(N)n3)cc2C(F)(F)F)cc1S(=O)(=O)C(C)C` [Compound 19, N*3*-[2-Chloro-4′-methoxy-3′-(propane-2-sulfonyl)-6-trifluoromethyl-biphenyl-4-yl]-1H-[1,2,4]triazole-3,5-diamine] are 0.049 µM and above 10 µM.
For `CN(C)CCOc1ccc(-c2c(Cl)cc(Nc3n[nH]c(N)n3)cc2Cl)cc1` [Compound 269, N*3*-[2,6-Dichloro-4′-(2-dimethylamino-ethoxy)-biphenyl-4-yl]-1H-[1,2,4]triazole-3,5-diamine], in that order: 0.122 µM and 6.09 µM.
On the same counts, the results for `CC(C)C(=O)Nc1ccc(-c2c(Cl)cc(Nc3n[nH]c(N)n3)cc2Cl)cc1` [Compound 251, N-[4′-(5-amino-1H-[1,2,4]triazol-3-ylamino)-2′,6′-dichloro-biphenyl-4-yl]-isobutyramide] are 0.041 µM and 32.5 µM.
On to `COc1ccc(-c2c(Cl)cc(Nc3n[nH]c(N)n3)cc2C(F)(F)F)cc1S(=O)(=O)N1CCNCC1` [Compound 182, N3-(2-chloro-4′-methoxy-3′-(piperazin-1-ylsulfonyl)-6-(trifluoromethyl)biphenyl-4-yl)-1H-1,2,4-triazole-3,5-diamine hydrochloride], for which the EC50 in assay [1] is 0.044 µM; in assay [2] it was above 10 µM.
On the same counts, the results for `Nc1nc(Nc2cc(Cl)c(-c3ccc(S(=O)(=O)C[C@@H]4CCCN4)cc3)c(C(F)(F)F)c2)n[nH]1` [Compound 35, N*3*-[2-Chloro-4′-((S)-1-pyrrolidin-2-ylmethanesulfonyl)-6-trifluoromethyl-biphenyl-4-yl]-1H-[1,2,4]triazole-3,5-diamine; hydrochloride] are 0.127 µM and 4.79 µM.
Regarding `Nc1nc(Nc2cc(Cl)c(-c3ccc(S(=O)(=O)N4CC(O)C4)cc3)c(C(F)(F)F)c2)n[nH]1` [Compound 191, 1-(4′-(5-amino-1H-1,2,4-triazol-3-ylamino)-2′-chloro-6′-(trifluoromethyl)biphenyl-4-ylsulfonyl)azetidin-3-ol], the values for the EC50 in assay [1] and in assay [2] were 0.069 µM and 25 µM, respectively.
For `CC(C)(C)OC(=O)N1CCC[C@H]1COc1ccc(-c2c(Cl)cc(Nc3n[nH]c(N)n3)cc2Cl)cc1` [Compound 280, (S)-2-[4′-(5-Amino-1H-[1,2,4]triazol-3-ylamino)-2′,6′-dichloro-biphenyl-4-yloxymethyl]-pyrrolidine-1-carboxylic acid tert-butyl ester], in that order: 0.401 µM and above 10 µM.
For `CS(=O)(=O)CCN1CCC(Oc2ccc(-c3c(Cl)cc(Nc4n[nH]c(N)n4)cc3C(F)(F)F)cc2)CC1` [Compound 141, N*3*-{6-Chloro-4′-[1-(2-methanesulfonyl-ethyl)-piperidin-4-yloxy]-2-trifluoromethyl-biphenyl-4-yl}-1H-[1,2,4]triazole-3,5-diamine hydrochloride], in that order: 0.194 µM and above 10 µM.
For `CC1(C)OCC(COc2ccc(-c3c(Cl)cc(Nc4n[nH]c(N)n4)cc3Cl)cc2)O1` (stereo not drawn) [Compound 274, N*3*-[2,6-Dichloro-4′-(2,2-dimethyl-[1,3]dioxolan-4-ylmethoxy)-biphenyl-4-yl]-1H-[1,2,4]triazole-3,5-diamine], in that order: 0.121 µM and 34.1 µM.
In the case of `CNS(=O)(=O)c1cccc(-c2c(F)cc(Nc3nc(N)n[nH]3)cc2C(F)(F)F)c1` [Compound 81, 4′-(5-Amino-2H-[1,2,4]-triazol-3-ylamino)-6′-fluoro-2′-trifluoromethyl-biphenyl-3-sulfonic acid methylamide], the EC50 in assay [1] came out at 0.549 µM; in assay [2] it was 34.9 µM.
For `CC1(NS(=O)(=O)c2ccc(-c3c(Cl)cc(Nc4n[nH]c(N)n4)cc3C(F)(F)F)cc2)CN(C(=O)OC(C)(C)C)C1` [Compound 205, tert-butyl 3-(4′-(5-amino-1H-1,2,4-triazol-3-ylamino)-2′-chloro-6′-(trifluoromethyl)biphenyl-4-ylsulfonamido)-3-methylazetidine-1-carboxylate], in that order: 0.011 µM and 9.26 µM.
On the same counts, the results for `COc1ccc(-c2c(Cl)cc(Nc3n[nH]c(N)n3)cc2C(F)(F)F)cc1S(=O)(=O)NC1CCNCC1` [Compound 204, 4′-(5-amino-1H-1,2,4-triazol-3-ylamino)-2′-chloro-4-methoxy-N-(piperidin-4-yl)-6′-(trifluoromethyl)biphenyl-3-sulfonamide hydrochloride] are 0.011 µM and above 10 µM.
